# From patent publication US6251897A, “6-phenyltetrahydro-1,3-oxazin-2-one derivative and pharmaceutical composition containing the same” (Nikken Chemicals Co., LTD, priority 1996, dated 2001)
# Test system: Type IV PDE
# Test: PDE inhibitory activity, type IV isozyme (3H-cAMP hydrolysis)
# Format: biochemical
# Details: partially purified from rat neutrophils, 30° C., 30 minutes
# Method: Type I, III, IV, and V PDE isozymes were prepared to study the PDE inhibitory activities and selectivities with the compound of the invention [Trends Pharmacol. Sci., 12, 19-27 (1992)]. Type I PDE was purchased from Sigma Corp. Type III, IV, and V PDE isozymes were partially purified from rats platelets (Type III and V) or neutrophils (Type IV). Each enzyme source was homogenized in a buffer (pH 6.5) containing 20 mM bisTris, 2 mM EDTA (ethylenediamine tetraacetate), 0.1 mM PMSF (phenylmethylsulfonyl fluoride), 5 mM 2-mercaptoethanol, 0.001 mM pepstatin, and 0.01 mM leupeptin and was centrifuged at 30,000×G for 30 minutes to obtain a supernatant, which was applied to an ion exchange column (Q-sepharose First Flow, Pharmacia Corp.) and was eluted with 0 to 1M sodium acetate. Partially purified isozymes were identified by observing the effects of conventional inhibitors.
# Each PDE isozyme and the test compound dissolved in DMSO (dimethyl sulfoxide) were added to 50 mM Tris-HCl buffer containing 5 mM magnesium chloride. ^3 H-cAMP (for type III and IV PDE) or ^3 H-cGMP (for type I and V PDE) were added as substrates and were reacted at 30° C. for 30 minutes. The reaction was terminated by placing the test tube in boiling water of 100° C. for 5 minutes. The nucleotides formed by PDE were broken down by 5'-nucleotidase to ^3 H-adenosine or ^3 H-guanosine. The unreacted substrate and reaction product were separated through an ion-exchange column (QAE sephadex, Pharmacia Corp.) The eluted ^3 H-nucleoside was measured for its radioactivity by a liquid scintillation counter. The inhibiting activities of the compound of the present invention are shown by the IC50 value (M). Further, the inhibitory activities of the test samples against Type I, III, and V are 1/10 or less than that against type IV.
row,Compound,IC50
1,"COc1ccc(C2CCNC(=O)O2)cc1O[C@H]1CC[C@H](c2ccccc2)CC1 (relative stereo) [Compound No. 78, 6-[4-methoxy-3-(trans-4-phenylcyclohexyloxy)phenyl]-3,4,5,6-tetrahydro-2H-1,3-oxazin-2-one]",1900 nM
2,"COc1ccc([C@H]2OC(=O)NC[C@H]2c2ccccc2)cc1OC1CCCC1 (relative stereo) [Compound No. 91, rel-(5R,6S)-6-(3-cyclopentyloxy-4-methoxyphenyl)-5-phenyl-3,4,5,6-tetrahydro-2H-1,3-oxazin-2-one]",2700 nM
3,"CCCCOc1cc(C2CCNC(=O)O2)ccc1OC (stereo not shown) [Compound No. 3, 6-(3-butoxy-4-methoxyphenyl)-3,4,5,6-tetrahydro-2H-1,3-oxazin-2-one]",6800 nM
4,"COc1ccc(C2(c3ccccc3)CCNC(=O)O2)cc1OC1CCCC1 (stereo not shown) [Compound No. 7, 6-(3-cyclopentyloxy-4-methoxyphenyl)-6-phenyl-3,4,5,6-tetrahydro-2H-1,3-oxazin-2-one]",4300 nM
5,"CCCCN1CCC(c2ccc(OC)c(OC3CCCC3)c2)OC1=O (stereo not shown) [Compound No. 17, 3-butyl-6-(3-cyclopentyloxy-4-methoxyphenyl)-3,4,5,6-tetrahydro-2H-1,3-oxazin-2-one]",2100 nM
6,"COc1ccc(C2(C)CCN(Cc3ccncc3)C(=O)O2)cc1OC1CCCC1 (stereo not shown) [Compound No. 22, 6-(3-cyclopentyloxy-4-methoxyphenyl)-6-methyl-3-(4-pyridylmethyl)-3,4,5,6-tetrahydro-2H-1,3-oxazin-2-one]",5900 nM
7,"COc1ccc(C2(c3nccs3)CCNC(=O)O2)cc1OC (stereo not shown) [Compound No. 27, 6-(3,4-dimethoxyphenyl)-6-(2-thiazolyl)-3,4,5,6-tetrahydro-2H-1,3-oxazin-2-one]",21000 nM
8,"COc1ccc(C2(c3cccs3)CCNC(=O)O2)cc1OC1CCCC1 (stereo not shown) [Compound No. 29, 6-(3-cyclopentyloxy-4-methoxyphenyl)-6-(2-thienyl)-3,4,5,6-tetrahydro-2H-1,3-oxazin-2-one]",3400 nM
9,"CCCCC1(c2ccc(OC)c(OC3CCCC3)c2)CCNC(=O)O1 (stereo not shown) [Compound No. 30, 6-butyl-6-(3-cyclopentyloxy-4-methoxyphenyl)-3,4,5,6-tetrahydro-2H-1,3-oxazin-2-one]",9000 nM
10,"COc1ccc(C2(c3nccs3)CCNC(=O)O2)cc1OC1CCCC1 (stereo not shown) [Compound No. 31, 6-(3-cyclopentyloxy-4-methoxyphenyl)-6-(2-thiazolyl)-3,4,5,6-tetrahydro-2H-1,3-oxazin-2-one]",4600 nM
11,"COc1ccc(C2CCN(CCN3CCCCC3)C(=O)O2)cc1OC1CCCC1 (stereo not shown) [Compound No. 32, 6-(3-cyclopentyloxy-4-methoxyphenyl) -3-[2-(1-piperidyl)ethyl]-3,4,5,6-tetrahydro-2H-1,3-oxazin-2-one]",32000 nM
12,"COc1ccc(C2CCN(CCN3CCOCC3)C(=O)O2)cc1OC1CCCC1 (stereo not shown) [Compound No. 33, 6-(3-cyclopentyloxy-4-methoxyphenyl)-3-[2-(4-morpholino)ethyl]-3,4,5,6-tetrahydro-2H-1,3-oxazin-2-one]",8800 nM
13,"COc1ccc(C2CCN(Cc3ccco3)C(=O)O2)cc1OC1CCCC1 (stereo not shown) [Compound No. 35, 6-(3-cyclopentyloxy-4-methoxyphenyl)-3-(2-furylmethyl)-3,4,5,6-tetrahydro-2H-1,3-oxazin-2-one]",2000 nM
14,"COc1ccc(C2CCN(Cc3cnccn3)C(=O)O2)cc1OC1CCCC1 (stereo not shown) [Compound No. 37, 6-(3-cyclopentyloxy-4-methoxyphenyl) -3-(2-pyrazinylmethyl)-3,4,5,6-tetrahydro-2H-1,3-oxazin-2-one]",4500 nM
15,"COc1ccc(C2CCN(Cc3cccs3)C(=O)O2)cc1OC1CCCC1 (stereo not shown) [Compound No. 38, 6-(3-cyclopentyloxy-4-methoxyphenyl)-3-(2-thienylmethyl)-3,4.56-tetrahydro-2H-1,3-oxazin-2-one]",2200 nM
16,"COc1ccc(C2(c3ccccn3)CCNC(=O)O2)cc1OC1CCCC1 (stereo not shown) [Compound No. 39, 6-(3-cyclopentyloxy-4-methoxyphenyl)-6-(2-pyridyl)-3,4,5,6-tetrahydro-2H-1,3-oxazin-2-one]",18000 nM

# The next molecules have a lower IC50 than those just listed; values first:
row,IC50,Compound
1,1200 nM,"COc1ccc(C2CCN(C)C(=O)O2)cc1O[C@H]1CC[C@H](c2ccccc2)CC1 (relative stereo) [Compound No. 79, 6-[4-methoxy-3-(trans-4-phenylcyclohexyloxy)phenyl]-3-methyl-3,4,5,6-tetrahydro-2H-1,3-oxazin-2-one]"
2,900 nM,"COc1ccc([C@@H]2OC(=O)NC[C@H]2c2ccccc2)cc1OC1CCCC1 (relative stereo) [Compound No. 92, rel-(5R,6R)-6-(3-cyclopentyloxy-4-methoxyphenyl)-5-phenyl-3,4,5,6-tetrahydro-2H-1,3-oxazin-2-one]"
3,73 nM,"COc1ccc(C2CCN(Cc3ccc4ccccc4n3)C(=O)O2)cc1OC1CCCC1 (stereo not shown) [Compound No. 12, 6-(3-cyclopentyloxy-4-methoxyphenyl)-3-(2-quinolylmethyl)-3,4,5 6-tetrahydro-2H-1,3-oxazin-2-one]"
4,1700 nM,"COc1ccc(C2CCN(Cc3cccc4ccccc34)C(=O)O2)cc1OC1CCCC1 (stereo not shown) [Compound No. 13, 6-(3-cyclopentyloxy-4-methoxyphenyl)-3-(1-naphthylmethyl)-3,4,5,6-tetrahydro-2H-1 3-oxazin-2-one]"
5,980 nM,"COc1ccc(C2CCN(Cc3ccc4ccccc4c3)C(=O)O2)cc1OC1CCCC1 (stereo not shown) [Compound No. 15, 6-(3-cyclopentyloxy-4-methoxyphenyl)-3-(2-naphthylmethyl)-3,4,5,6-tetrahydro-2H-1,3-oxazin-2-one]"
6,410 nM,"COc1ccc(C2CCN(C(=O)c3ccccc3)C(=O)O2)cc1OC1CCCC1 (stereo not shown) [Compound No. 18, 3-benzoyl-6-(3-cyclopentyloxy-4-methoxyphenyl)-3,4,5,6-tetrahydro-2H-1,3-oxazin-2-one]"
7,1800 nM,"CCOC(=O)CN1CCC(c2ccc(OC)c(OC3CCCC3)c2)OC1=O (stereo not shown) [Compound No. 19, 6-(3-cyclopentyloxy-4-methoxyphenyl)-3-(ethoxycarbonylmethyl)-3,4,5,6-tetrahydro-2H-1,3-oxazin-2-one]"
8,860 nM,"COc1ccc(C2CCN(Cc3c(C)c4ccccc4n3C(C)=O)C(=O)O2)cc1OC1CCCC1 (stereo not shown) [Compound No. 34, 3-(1-acetyl-3-methyl-2-indolylmethyl)-6-(3-cyclopentyloxy-4-methoxyphenyl)-3,4,5,6-tetrahydro-2H-1,3-oxazin-2-one]"
9,1600 nM,"COc1ccc(C2(c3cccnc3)CCNC(=O)O2)cc1OC1CCCC1 (stereo not shown) [Compound No. 36, 6-(3-cyclopentyloxy-4-methoxyphenyl)-6-(3-pyridyl)-3,4,5,6-tetrahydro-2H-1,3-oxazin-2-one]"
10,730 nM,"COc1ccc(C2CCNC(=O)O2)cc1OCCCCCc1ccccc1 (stereo not shown) [Compound No. 41, 6-[4-methoxy-3-(5-phenylpentyloxy)phenyl]-3,4,5,6-tetrahydro-2H-1,3-oxazin-2-one]"
11,1000 nM,"COc1ccc(C2CCN(C)C(=O)O2)cc1OCCCCCc1ccccc1 (stereo not shown) [Compound No. 42, 6-[4-methoxy-3-(5-phenylpentyloxy)phenyl]-3-methyl-3,4,5,6-tetrahydro-2H-1,3-oxazin-2-one]"
12,1500 nM,"COc1ccc(C2CCN(C)C(=O)O2)cc1OCCc1ccccc1 (stereo not shown) [Compound No. 44, 6-(4-methoxy-3-phenethyloxyphenyl)-3-methyl-3,4,5,6-tetrahydro-2H-1,3-oxazin-2-one]"
